Bounds are passed on as bounds.

As a reminder, the EC50 is the concentration needed to bring the measured effect to its halfway point. In general, Kd refers to the concentration at which binding is half-saturated. Read a high Kd as a looser complex.

For series [1], the system named is human PBMC co-cultured with 4T1-D02 (Nectin4+). Description: Human PBMC-4T1 co-culture (cytokine release) assay. The conditions noted are these: anti-CD3 stimulated PBMC, 48 hours; for EC50: IFN-γ secretion. Type of series: cell-based. The method, then:
Mouse mammary gland tumor cell line 4T1-1 (4T1-Parental) and murine Nectin-4 overexpressing 4T1 (4T1-D02) were cultured in RPMI1640 supplemented with 10% heat-inactivated Fetal Bovine Serum, 100 I.U/ml Penicillin and 100 I.U/Streptomycin, 20 mM HEPES, 1× Non-Essential Amino Acids, and 2 mM L-Glutamine (RPMI working medium). Frozen PBMCs from healthy human donors were thawed and washed one time in room temperature PBS, and then resuspended in RPMI working medium. For tumor cell and PBMC co-culture, 10000 PBMCs and 2000 tumor cells (5:1) were mixed and plated in each well of a 384 well plate. For stimulating human PBMCs, 125 ng/ml of soluble anti-CD3 mAb (clone OKT3) was added to the culture on day 0. Test, control compounds or vehicle controls were added to respective wells and brought the final volume per well to 100u1. Plates were incubated in a 37° C. cell culture incubator with 5% CO2 for up to three days. Supernatants were collected 48 hours after stimulation, and human IL-2 and IFFγ were detected using HTRF assays. Raw data were analyzed using Excel or Prism software to generate standard curves to interpolate protein concentrations. Data represents one study with three different donor PBMC tested in experimental duplicates.

Series [2] deals with T1, CD137 (Homo sapiens, UniProt Q07011). The experiment in a line: CD137 reporter assay, co-culture with Nectin-4 tumour cells.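 As to all read-outs here: jurkat reporter cells co-cultured with tumour cells and test article for 6 h, luminescence signal relative to Jurkat plus tumour cells lacking test article.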 Format: cell-based. Set-up: host or cells: Jurkat reporter cells. The conditions noted are these: for Fold Induction over Background: tumour target Nectin4, co-culture with H1376, 6 h. On the technique in general: In a reporter assay the amount or activity of a reporter protein is the signal.
T1 sequence (Q07011 24-255): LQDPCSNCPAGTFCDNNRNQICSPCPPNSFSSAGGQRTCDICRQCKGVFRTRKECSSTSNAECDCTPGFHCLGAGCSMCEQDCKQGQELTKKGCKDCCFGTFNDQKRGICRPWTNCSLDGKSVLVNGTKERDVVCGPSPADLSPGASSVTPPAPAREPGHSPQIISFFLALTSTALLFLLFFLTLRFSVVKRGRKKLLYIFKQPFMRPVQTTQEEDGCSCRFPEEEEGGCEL
Description: Culture medium referred to as R1 media is prepared by adding 1% FBS to RPMI-1640 (component of Promega kit CS196005). Serial dilutions of test articles in R1 are prepared in a sterile 96 well-plate. Use 25 μl per well of test articles or R1 (as a background control) to designated wells in white cell culture plate. Tumour cells* are harvested and resuspended at a concentration of 400,000 cells/mL in R1 media. Twenty five (25) μL/well tumour cells are used in white cell culture plate. Jurkat cells (Promega kit CS196005, 0.5 mL) are thawed in the water bath and then added to 5 ml pre-warmed R1 medium. Twenty five (25) μL/well Jurkat cells are used in white cell culture plate. Incubate the cells and test articles for 6h at 37° C., 5% CO2. At the end of 6 h, add 75 μl/well Bio-Glo™ (Promega) and incubate for 10 min before reading luminescence in a plate reader (Clariostar, BMG). The fold change relative to cells (Jurkat cells+Cell line used in co-culture) is calculated and plotted in GraphPad Prism as log(agonist) vs response to determine EC50 (nM) and Fold Induction over background (Max)

The target in series [3] is T1, CD137. The experiment in a line: CD137 Biacore (SPR) binding assay. Also noted: purchased R&D systems. The note with it: biotinylated human CD137, 25° C. The method, then: Biacore experiments were performed to determine ka (M^−1s^−1), kd (s^−1), KD (nM) values of heterotandem peptides binding to human CD137 protein. […] The protein was desalted to remove uncoupled biotin using spin columns into PBS.
For analysis of peptide binding, a Biacore T200 or a Biacore 3000 instrument was used with a XanTec CMD500D chip. Streptavidin was immobilized on the chip using standard amine-coupling chemistry at 25° C. with HBS-N (10 mM HEPES, 0.15 M NaCl, pH 7.4) as the running buffer. Briefly, the carboxymethyl dextran surface was activated with a 7 min injection of a 1:1 ratio of 0.4 M 1-ethyl-3-(3-dimethylaminopropyl) carbodiimide hydrochloride (EDC)/0.1 M N-hydroxy succinimide (NHS) at a flow rate of 10 μl/min. For capture of streptavidin, the protein was diluted to 0.2 mg/ml in 10 mM sodium acetate (pH 4.5) and captured by injecting 120 μl of onto the activated chip surface. Residual activated groups were blocked with a 7 min injection of 1 M ethanolamine (pH 8.5) and biotinylated CD137 captured to a level of 270-1500 RU. Buffer was changed to PBS/0.05% Tween 20 and a dilution series of the peptides was prepared in this buffer with a final DMSO concentration of 0.5%. The top peptide concentration was 500 nM with 6 further 2-fold or 3-fold dilutions. The SPR analysis was run at 25° C. at a flow rate of 90 μl/min with 60 seconds association and 900 seconds dissociation. After each cycle a regeneration step (10 μl of 10 mM glycine pH 2) was employed. Data were corrected for DMSO excluded volume effects as needed. All data were double-referenced for blank injections and reference surface using standard processing procedures and data processing and kinetic fitting were performed using Scrubber software, version 2.0c (BioLogic Software). Data were fitted using simple 1:1 binding model allowing for mass transport effects where appropriate.

Another series concerns the target human EphA2 protein (Homo sapiens, UniProt P29317). Description: EphA2 Biacore (SPR) binding assay. The conditions noted are these: biotinylated human EphA2, 25° C. On the procedure: Biacore experiments were performed to determine ka (M^−1s^−1), kd (s^−1), KD (nM) values of heterotandem peptides binding to human EphA2 protein.
EphA2 were biotinylated with EZ-Link™ Sulfo-NHS-LC-Biotin for 1 hour in 4 mM sodium acetate, 100 mM NaCl, pH 5.4 with a 3× molar excess of biotin over protein. The degree of labelling was determined using a Fluorescence Biotin Quantification Kit (Thermo) after dialysis of the reaction mixture into PBS. For analysis of peptide binding, a Biacore T200 instrument was used with a XanTec CMD500D chip. Streptavidin was immobilized on the chip using standard amine-coupling chemistry at 25° C. with HBS-N (10 mM HEPES, 0.15 M NaCl, pH 7.4) as the running buffer. Briefly, the carboxymethyl dextran surface was activated with a 7 min injection of a 1:1 ratio of 0.4 M 1-ethyl-3-(3-dimethylaminopropyl) carbodiimide hydrochloride (EDC)/0.1 M N-hydroxy succinimide (NHS) at a flow rate of 10 it/min. For capture of streptavidin, the protein was diluted to 0.2 mg/ml in 10 mM sodium acetate (pH 4.5) and captured by injecting 120 μl onto the activated chip surface. Residual activated groups were blocked with a 7 min injection of 1 M ethanolamine (pH 8.5):HBS-N (1:1). Buffer was changed to PBS/0.05% Tween 20 and biotinylated EphA2 was captured to a level of 500-1500 RU using a dilution of protein to 0.2 μM in buffer. A dilution series of the peptides was prepared in this buffer with a final DMSO concentration of 0.5% with a top peptide concentration was 50 or 100 nM and 6 further 2-fold dilutions. The SPR analysis was run at 25° C. at a flow rate of 90 μl/min with 60 seconds association and 900-1200 seconds dissociation. Data were corrected for DMSO excluded volume effects. All data were double-referenced for blank injections and reference surface using standard processing procedures and data processing and kinetic fitting were performed using Scrubber software, version 2.0c (BioLogic Software). Data were fitted using simple 1:1 binding model allowing for mass transport effects where appropriate.
(In general: In SPR one partner is held on a chip, and binding of the other changes the refractive index at the surface.)

In series [4] the target is T1, CD137. The experiment in a line: CD137 reporter assay, co-culture with EphA2 tumour cells. The conditions noted are these: tumour target EphA2, co-culture with SC-OV-3, 6 h. Type of series: cell-based. Also noted: host or cells: Jurkat reporter cells. In short, it runs like this: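 Jurkat CD137 reporter cells co-cultured with tumour cells and serially diluted test articles in RPMI-1640 + 1% FBS, 6 h at 37 °C, 5% CO2. Luminescence read after Bio-Glo; fold change over cells-only background fitted log(agonist) vs response for EC50 (nM) and maximal fold induction.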

Sequence of human EphA2 protein (P29317 24-976): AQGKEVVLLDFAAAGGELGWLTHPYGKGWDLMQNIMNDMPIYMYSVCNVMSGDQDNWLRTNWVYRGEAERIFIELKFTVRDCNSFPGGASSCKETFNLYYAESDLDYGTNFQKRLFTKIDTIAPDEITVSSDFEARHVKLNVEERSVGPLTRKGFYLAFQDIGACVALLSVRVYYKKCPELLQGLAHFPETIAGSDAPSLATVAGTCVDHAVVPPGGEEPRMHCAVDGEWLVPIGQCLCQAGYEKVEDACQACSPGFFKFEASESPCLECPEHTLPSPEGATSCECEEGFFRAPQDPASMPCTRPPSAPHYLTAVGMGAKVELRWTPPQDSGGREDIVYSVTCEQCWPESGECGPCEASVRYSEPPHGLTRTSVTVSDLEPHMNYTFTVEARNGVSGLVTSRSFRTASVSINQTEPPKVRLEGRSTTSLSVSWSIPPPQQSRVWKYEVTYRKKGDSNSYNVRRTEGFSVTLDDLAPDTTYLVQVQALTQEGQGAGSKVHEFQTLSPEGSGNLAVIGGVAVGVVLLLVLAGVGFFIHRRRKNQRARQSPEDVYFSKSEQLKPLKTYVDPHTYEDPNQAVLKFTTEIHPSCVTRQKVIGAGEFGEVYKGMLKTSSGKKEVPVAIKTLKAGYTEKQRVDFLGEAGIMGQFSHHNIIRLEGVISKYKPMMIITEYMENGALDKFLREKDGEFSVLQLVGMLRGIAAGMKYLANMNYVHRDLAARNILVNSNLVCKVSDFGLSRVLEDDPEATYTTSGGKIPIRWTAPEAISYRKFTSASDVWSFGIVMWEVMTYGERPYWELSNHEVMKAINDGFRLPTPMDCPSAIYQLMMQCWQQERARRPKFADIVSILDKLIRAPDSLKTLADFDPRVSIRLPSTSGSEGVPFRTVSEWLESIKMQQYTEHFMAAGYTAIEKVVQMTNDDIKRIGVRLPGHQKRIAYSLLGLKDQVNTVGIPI

With `CCCC[C@@H]1NC(=O)[C@H](Cc2ccc(O)cc2)NC(=O)[C@@H]2CCCN2C(=O)[C@H](CC(=O)O)NC(=O)[C@H](C)NC(=O)[C@H](Cc2ccccc2)NC(=O)[C@@H]2CSCCC(=O)N3CN(CN(C3)C(=O)CCSC[C@@H](C(=O)N[C@@H](CNC(=O)CCOCCOCCOCCOCCOCCOCCOCCOCCOCCOCCOCCOCCn3cc(CCC(=O)NCCC(=O)N(C)CC(=O)N(C)CC(=O)N(C)CC(=O)N(C)CC(=O)N(C)CC(=O)N(C)CC(=O)N(C)CC(=O)N(C)CC(=O)N(C)CC(=O)N(C)CC(=O)N[C@H]4CSCCC(=O)N5CN6CN(C5)C(=O)CCSC[C@H](NC(=O)[C@@H](CC(=O)O)NC(=O)[C@H](Cc5cccc7ccccc57)NC(=O)[C@@H]5CCCN5C4=O)C(=O)N[C@@H](CCSC)C(=O)N[C@@H](CCCCNC(=N)N)C(=O)N[C@@H](CC(=O)O)C(=O)N[C@@H](Cc4c[nH]c5ccccc45)C(=O)N[C@@H](CO)C(=O)N[C@@H]([C@@H](C)O)C(=O)N4CCC[C@H]4C(=O)N4C[C@H](O)C[C@H]4C(=O)N[C@@H](Cc4c[nH]c5ccccc45)C(=O)N[C@H](C(N)=O)CSCCC6=O)nn3)C(N)=O)NC1=O)C(=O)CCSC[C@H](NC(=O)[C@H](C)NC(C)=O)C(=O)N[C@@H]([C@@H](C)CC)C(=O)N[C@@H](CCC(=O)O)C(=O)N[C@@H](CCC(=O)O)C(=O)NCC(=O)N[C@@H](CCC(N)=O)C(=O)N[C@@H](Cc1ccc(O)cc1)C(=O)N2` [BCY8854], in series [1], the midpoint of the response, the EC50, lay at 0.89 nM and the “max IFN-y” value amounted to 15962 pg/mL. Further, at CD137 [2], it took 1.2 nM to reach a half-maximal effect (EC50) and the “Fold Induction over Background” value turned out to be 30 fold.

With `CCCC[C@@H]1NC(=O)[C@H](Cc2ccc(O)cc2)NC(=O)[C@@H]2CCCN2C(=O)[C@H](CC(=O)O)NC(=O)[C@@H](C)NC(=O)[C@H](Cc2ccccc2)NC(=O)[C@@H]2CSCCC(=O)N3CN(CN(C3)C(=O)CCSC[C@@H](C(=O)N[C@@H](CNC(=O)CCOCCOCCOCCOCCOCCOCCOCCOCCOCCOCCOCCOCCn3cc(CCC(=O)NCCC(=O)N(C)CC(=O)N(C)CC(=O)N(C)CC(=O)N(C)CC(=O)N(C)CC(=O)N(C)CC(=O)N(C)CC(=O)N(C)CC(=O)N(C)CC(=O)N(C)CC(=O)N[C@H]4CSCCC(=O)N5CN6CN(C5)C(=O)CCSC[C@H](NC(=O)[C@@H](CC(=O)O)NC(=O)[C@H](Cc5cccc7ccccc57)NC(=O)[C@@H]5CCCN5C4=O)C(=O)N[C@@H](CCSC)C(=O)N[C@@H](CCCCNC(=N)N)C(=O)N[C@@H](CC(=O)O)C(=O)N[C@@H](Cc4c[nH]c5ccccc45)C(=O)N[C@@H](CO)C(=O)N[C@@H]([C@@H](C)O)C(=O)N4CCC[C@H]4C(=O)N4C[C@H](O)C[C@H]4C(=O)N[C@@H](Cc4c[nH]c5ccccc45)C(=O)N[C@H](C(N)=O)CSCCC6=O)nn3)C(N)=O)NC1=O)C(=O)CCSC[C@H](NC(=O)[C@H](C)NC(C)=O)C(=O)N[C@@H]([C@@H](C)CC)C(=O)N[C@@H](CCC(=O)O)C(=O)N[C@@H](CCC(=O)O)C(=O)NCC(=O)N[C@@H](CCC(N)=O)C(=O)N[C@@H](Cc1ccc(O)cc1)C(=O)N2` [BCY9351], the “max IFN-y” value in series [1] was “No Activity up to 1 μM”. For the same compound, on CD137 [3], the Kd worked out at 3640 nM. Further, on CD137 [2] (read-out: Fold Induction over Background at 100 nM), the fold induction at 0.1 µM is under 2.

Regarding `CCCC[C@@H]1NC(=O)[C@H](Cc2ccc(O)cc2)NC(=O)[C@@H]2CCCN2C(=O)[C@H](CC(=O)O)NC(=O)[C@H](C)NC(=O)[C@H](Cc2ccccc2)NC(=O)[C@@H]2CSCCC(=O)N3CN(CN(C3)C(=O)CCSC[C@@H](C(=O)N[C@@H](CNC(=O)CCc3cn(CCOCCOCCOCCOCCOCCOCCOCCOCCOCCOCCNC(=O)NCCC(=O)N(C)CC(=O)N(C)CC(=O)N(C)CC(=O)N(C)CC(=O)N(C)CC(=O)N(C)CC(=O)N(C)CC(=O)N(C)CC(=O)N(C)CC(=O)N(C)CC(=O)N[C@@H](C)C(=O)N[C@@H](CCCCNC(=N)N)C(=O)N[C@@H](CC(=O)O)C(=O)N[C@H]4CSCCC(=O)N5CN6CN(C5)C(=O)CCSC[C@H](NC(=O)[C@H](CC(C)C)NC(=O)[C@@H]5CCCN5C(=O)[C@H](CC(N)=O)NC(=O)[C@H](C(C)C)NC(=O)[C@H](CC(C)C)NC(=O)[C@@H]5C[C@@H](O)CN5C4=O)C(=O)N[C@@H](CC(C)C)C(=O)N[C@@H](Cc4c[nH]cn4)C(=O)N4CCC[C@H]4C(=O)N[C@H](CC(=O)O)C(=O)N[C@@H](Cc4c[nH]c5ccccc45)C(=O)N[C@@H](CCCCNC(=N)N)C(=O)N[C@H](C(N)=O)CSCCC6=O)nn3)C(N)=O)NC1=O)C(=O)CCSC[C@H](NC(=O)[C@H](C)NC(C)=O)C(=O)N[C@@H]([C@@H](C)CC)C(=O)N[C@@H](CCC(=O)O)C(=O)N[C@@H](CCC(=O)O)C(=O)NCC(=O)N[C@@H](CCC(N)=O)C(=O)N[C@@H](Cc1ccc(O)cc1)C(=O)N2` [BCY9647], binding at CD137 [3] was characterised by a dissociation constant (Kd) of 206 nM. Further, the Kd on human EphA2 protein amounted to 1.69 nM. At CD137 [4], the EC50 amounted to 7.2 nM and the “Fold Induction over Background” value is recorded as 24 fold.

`CCCC[C@@H]1NC(=O)[C@H](Cc2ccc(O)cc2)NC(=O)[C@@H]2CCCN2C(=O)[C@H](CC(=O)O)NC(=O)[C@H](C)NC(=O)[C@H](Cc2ccccc2)NC(=O)[C@@H]2CSCCC(=O)N3CN(CN(C3)C(=O)CCSC[C@@H](C(=O)N[C@@H](C)C(N)=O)NC1=O)C(=O)CCSC[C@H](NC(C)=O)C(=O)N[C@@H](CC(C)(C)C)C(=O)N1CCC[C@H]1C(=O)N[C@@H](CCCCNC(=O)CCc1cn(CCOCCOCCOCCOCCOCCC(=O)N[C@H]3CSCCC(=O)N4CN5CN(C4)C(=O)CCSC[C@H](NC(=O)[C@@H](CC(=O)O)NC(=O)[C@H](Cc4cccc6ccccc46)NC(=O)[C@@H]4CCCN4C3=O)C(=O)N[C@@H](CCSC)C(=O)N[C@@H](CCCCNC(=N)N)C(=O)N[C@@H](CC(=O)O)C(=O)N[C@@H](Cc3c[nH]c4ccccc34)C(=O)N[C@@H](CO)C(=O)N[C@@H]([C@@H](C)O)C(=O)N3CCC[C@H]3C(=O)N3C[C@H](O)C[C@H]3C(=O)N[C@@H](Cc3c[nH]c4ccccc34)C(=O)N[C@H](C(N)=O)CSCCC5=O)nn1)C(=O)N[C@H](C)C(=O)N1CCC[C@H]1C(=O)N[C@@H](Cc1ccc(O)cc1)C(=O)N2` [BCY10571]: in series [1], the 50% effective concentration (EC50) was determined as 0.44 nM and the “max IFN-y” value amounted to 18349 pg/mL. Also, at CD137 [2], the EC50 was found to be 3.5 nM and the “Fold Induction over Background” value was 60 fold.

Source of the values: patent US11453703B2, “Heterotandem bicyclic peptide complexes” (BicycleTX Limited, priority 2018, dated 2022).
